The values below come from PMC5473904, “Epigenetic and antitumor effects of platinum(IV)-octanoato conjugates” (Scientific Reports, 2017).

The IC50 is the concentration needed to halve the response being measured. As usually defined, the logP is the decadic logarithm of the partition coefficient of the neutral form, usually between octanol and water.

For data set [1], the system named is Lewis lung carcinoma (LLC). Briefly: In vivo antitumor activity in Lewis lung carcinoma. The note with it: LLC in C57BL mice; for Average tumor weight (mean ± SD): 20 mg kg^−1 daily orally day 7–14, day 15; for Inhibition of tumor growth: 20 mg kg^−1 daily orally day 7–14, day 15, referred to control animals. On the procedure: Xenograft LLC tumors were grown in C57BL mice that were subsequently treated with […] of either Pt(IV) complex. Pt(IV) prodrugs were administered by oral gavage by taking advantage of their excellent stability, enabling in vivo oral formulation making platinum therapy safer lessening side effects and partially overcoming resistance to platinum(II) drugs, [35]. The schedule of Pt(IV) prodrug administration in vivo was initially determined by assessing the total dose that could be injected without undue toxicity in nontumor-bearing C57BL mice. From day 7 after tumor inoculation, when tumors became visible, tumor-bearing mice received daily doses of the Pt(IV) derivatives (20 mg kg^−1, by oral gavage).
The LLC cell line was purchased from ECACC, United Kingdom. The LLC cell line was maintained in DMEM (Euroclone) supplemented with 10% heat-inactivated fetal bovine serum (FBS; Euroclone), 10 mM L-glutamine, 100 U mL^−1 penicillin, and 100 μg mL^−1 streptomycin in a 5% CO2 air incubator at 37 °C. The LLC was implanted intramuscularly (im) as a 2 × 10^6 cell inoculum into the right hind leg of 8-week old male and female C57BL mice (24 ± 3 g body weight). […] At day 15, animals were sacrificed, the legs were amputated at the proximal end of the femur, and the inhibition of tumor growth was determined according to the difference in weight of the tumor-bearing leg, and the healthy leg of the animals expressed as a percentage referred to the control animals. Body weight was measured every two days and was taken as a parameter for systemic toxicity. All the values are the means ± SD of not less than three measurements.

The subject of data set [2] is A2780 human ovarian carcinoma cells. Nature of the data set: MTT cytotoxicity, 72 h. Type of data set: cell-based. The settings on record: MTT, 72 h, platinum complexes.
Data set [3] concerns A2780cisR human ovarian carcinoma cells. Nature of the data set: MTT cytotoxicity, 72 h. Type of data set: cell-based. On the procedure:
(§1) Cytotoxic activity of the compounds tested in the present work was screened on the panel of malignant and nonmalignant cell lines using the colorimetric MTT assay and 72 h of drug incubation period.
(§2) Cell death was evaluated using a system based on the tetrazolium compound MTT [3-(4,5-dimethyl-2-thiazolyl)-2,5-diphenyl-2H-tetrazolium bromide]. The cells were seeded in 96-well tissue culture plates at a density of 10^4 A2780cisR, LNCaP, HSF cells/well, 3 × 10^3 CHO-K1 or 4 × 10^3 MCF7, HCT-116 and MRC5 pd30 cells/well in 100 μL of medium. After overnight incubation (16 h), the cells were treated with the compounds in a final volume of 200 μL/well. After additional 72 h, 10 μL of a freshly diluted MTT solution (2.5 mg mL^−1) was added to each well, and the plate was incubated at 37 °C in a humidified 5% CO2 atmosphere for 4 h. At the end of the incubation period, the medium was removed, and the formazan product was dissolved in 100 μL of DMSO. The cell viability was evaluated by measurement of the absorbance at 570 nm, using an Absorbance Reader SUNRISE TECAN SCHOELLER. IC50 values were calculated from curves constructed by plotting cell survival (%) versus drug concentration (μM). All experiments were made in triplicate. The reading values were converted to the percentage of control (% cell survival). Cytotoxic effects were expressed as IC50.

In data set [4] the test system is CHO-K1 Chinese hamster ovary cells. Briefly: MTT cytotoxicity, 72 h. Type of data set: cell-based. The note with it: platinum complexes. On the procedure: as §1, §2
Data set [5] has as its system HCT-116 human colorectal carcinoma cells. Nature of the data set: MTT cytotoxicity, 72 h. Type of data set: cell-based. The note with it: MTT, 72 h, platinum complexes and decitabine. On the procedure: as §1, §2
Data set [6] relates to HSF human primary skin fibroblasts. Nature of the data set: MTT cytotoxicity, 72 h. Type of data set: cell-based. The settings on record: platinum complexes. On the procedure: as §1, §2
The test system of data set [7] is LNCaP human prostate adenocarcinoma cells. Nature of the data set: MTT cytotoxicity, 72 h. The note with it: platinum complexes. Type of data set: cell-based. On the procedure:
as §1, §2

For data set [8], the system named is MCF-7 human breast cancer cells. Briefly: MTT cytotoxicity, 72 h. Type of data set: cell-based. The note with it: platinum complexes. On the procedure: as §1, §2
Data set [9] relates to MRC-5 (PD30) human fetal lung fibroblasts. Nature of the data set: MTT cytotoxicity, 72 h. The note with it: platinum complexes. Type of data set: cell-based. On the procedure:
as §1, §2

For data set [10], the system named is PNT1a. Nature of the data set: MTT cytotoxicity, 72 h. The note with it: platinum complexes. Type of data set: cell-based.
The test system of data set [11] is A2780 cells. Nature of the data set: Cellular platinum accumulation/distribution by ICP-MS. Type of data set: cell-based, human. The settings on record: 0.35 µM. On the procedure: (§3) Cellular concentrations of platinum were determined by inductively coupled plasma mass spectrometry (ICP-MS) after 24 h of exposure to the complexes at the concentration of 0.35 µM.
(§4) Cellular uptake studies were also carried out to measure the accumulation of platinum species in cytosol and nucleus. […] The platinum levels in each pool were measured by ICP-MS. The extent of accumulation of both OA conjugated Pt(IV) prodrugs into the cytosol and nucleus fractions was markedly higher than that of cisplatin or Pt(IV)diAc.
(§5) The cells were seeded in 150 cm^2 culture flasks at a density 1 × 10^7 cells/flask (67 000 cells/cm^2). After 48-h incubation, the cells were treated with the compounds (0.35 μM) for 24 h. The attached cells were washed twice with PBS (4 °C). Seventy-five percent of cells were used for analysis of platinum bound to DNA, remaining 25% were used for estimations of cellular accumulation of platinum. Cell pellets were digested by a high-pressure microwave digestion system (MARS5, CEM) with HCl to give a fully homogenized solution, and final platinum content was determined by ICP-MS. The analysis with the aid of ICP-MS was performed using Agilent 7500 (Agilent, Japan) or Thermo Optek X Series.
(§6) A2780 cells were seeded in 100 mm tissue culture dishes (3 × 10^6 cells) and grown for 48 h to 80–90% confluence. Cells were harvested after 24 h of treatment. Concretely, the dishes were washed two times with ice-cold PBS and the cells scraped into tubes and centrifuged for 10 min at 0 °C (200 g). The pellets were resuspended in the lysis buffer [Tris·HCl (10 mM, pH 8.0), KCl (60 mM), EDTA (1.2 mM), DTT (1 mM), phenylmethanesulfonyl fluoride (PMSF, 0.1 mM), NP-40 (0.04%)] for 10 min on ice and centrifuged for 4 min at 0 °C (800 g). Cytosolic fraction was separated for platinum ICP-MS analysis, and protein concentration was determined by Bradford assay. The pellets were rinsed with the above lysis buffer without PMSF and NP-40 and centrifuged for another 4 min at 0 °C (300 g). The pellets were resuspended in 50 µL nuclear extraction buffer [Tris·HCl (20 mM, pH 8.0), NaCl (420 mM), MgCl2 (0.7 mM), EDTA (0.25 mM), glycerol (25%)] and incubated for 30 min at 4 °C, continuously mixed on end-over-end roller, and then centrifuged for 15 min at 0 °C (13000 g). Protein concentration in nuclear extracts was determined by the Bradford assay, and stored at −80 °C until analysis.

For data set [12], the system named is HCT-116 cells. Described as above. The settings on record: HCT-116, 24 h exposure, 0.35 µM. Type of data set: cell-based, human. On the procedure: as §3, §4, §5, §6
For data set [13], the system named is DNA from A2780 cells. Briefly: Platinum content on DNA isolated from treated cells (ICP-MS). The settings on record: A2780, 24 h, 0.35 µM. Type of data set: cell-based, human. On the procedure:
(§7) As for antitumor cisplatin and its direct derivatives, DNA is believed to be the target also for Pt(IV) prodrugs examined in the present work.
(§8) The cells were seeded in 150 cm^2 culture flasks at a density 1 × 10^7 cells/flask (67 000 cells/cm^2). After 48-h incubation, the cells were treated with the compounds (0.35 μM) for 24 h. The attached cells were washed twice with PBS (4 °C). As mentioned in the preceding paragraph, 75% of cells were used for analysis of platinum bound to DNA, remaining 25% were used for estimations of cellular accumulation of platinum. Cells were then lysed in DNAzol (DNAzol® genomic DNA isolation reagent, MRC) supplemented with RNase A (100 μg mL^−1). The genomic DNA was precipitated from the lysate with ethanol, dried and resuspended in water. The DNA content in each sample was determined by UV spectrophotometry. The DNA samples were digested in the presence of hydrochloric acid (11 M) using high-pressure microwave mineralization system (MARS5, CEM). The platinum content was determined by ICP-MS. Experiments were performed in triplicate and the values are the means ± SD.

Data set [14] deals with DNA from HCT-116 cells. The description is as above. Type of data set: cell-based, human. The note with it: HCT-116, 24 h, 0.35 µM. On the procedure:
as §7, §8

In data set [15] the test system is HCT-116 cells. Briefly: Cellular platinum accumulation/distribution by ICP-MS. Type of data set: cell-based, human. The note with it: HCT-116, 24 h, 0.35 µM.
Data set [16] has as its system DNA methylation in HCT-116 cells. Briefly: DNA methylation analysis (Imprint methylated DNA quantification kit). Type of data set: cell-based, human. The settings on record: HCT-116, 1 µM. On the procedure: Human colon adenocarcinoma cells HCT-116 were chosen as the model cellular system suitable for DNA methylation analysis because: (i) this human colorectal cancer cell line has been used as a prototypic model for analyses of the genetic basis of cancer, and the role of epigenetic changes in tumorigenesis; (ii) they have a propensity to both global DNA hypomethylation and to silence genes through promoter focal hypermethylation, [21]. HCT-116 cells were treated with the compounds at the concentrations indicated in Fig. 4A for 24 or 72 h and DNA was isolated for the complete methylation analysis as described in the experimental section. Decitabine (5-aza-2′-deoxycytidine), a hypomethylating agent which hypomethylates DNA by inhibiting DNMT, was used in these experiments as a […]. The IC50 values found for this agent in HCT-116 cells (the drug-treatment period was 72 h) was (7.5 ± 0.3) µM (Table 1).
Figure 4 Analysis of DNA methylation. (A) DNA was isolated from HCT-116 cells after the exposure to the agents at the concentrations indicated in the graph for 24 or 72 h. The levels of DNA methylation in the control was taken as 100%. The bars represent mean values from three independent experiments each performed in octuplicate. The error bars are the SDs. (B) DNMT activity in colon carcinoma cells HCT-116 treated for 24 h with the compounds tested in the present work. The DNMT activity in the control, untreated cells was taken as 100%. Error bars are the SDs and the stars at the top of bars denote a significant difference from the control with (*p < 0.05; **p < […]), calculated using […] student’s t-test. The bars represent mean values from three independent experiments, each performed in quadruplicate.
Human colon carcinoma cells (HCT-116) were seeded at the density 1.5 × 10^6 cells/dish. […] The DNA content in each sample was determined by UV spectrophotometry. DNA (200 ng) from the samples was loaded to the Imprint methylated DNA quantification kit (Sigma-Aldrich, USA). The level of methylated DNA was proportional to the absorbance measured at 450 nm.

Details of data set [17]: method as in PMID 25888926. The note with it: valproato complexes; cited from earlier work.
Setting [18] is: rough estimate from Tables 2 and 3.

Regarding `CCCC(=O)[O][Pt]([NH2])([NH2])([Cl])([Cl])[O]C(=O)CCC` [Pt(IV)diBA, cis, cis, trans-[Pt(IV)(NH3)2Cl2(BA)2]], in data set [1], the “Average tumor weight (mean ± SD)” value was 0.109 ± 0.05 g and the “Inhibition of tumor growth” value is 80%.
As to `CCCCCCCC(=O)[O][Pt]([NH2])([NH2])([Cl])([Cl])[O]C(C)=O` [Pt(IV)AcOA, cis, cis, trans-[Pt(IV)(NH3)2Cl2AcOA]], the concentration for half-maximal inhibition (IC50) in data set [2] worked out at 350 ± 50 nM; in data set [3] (MTT, 72 h, platinum complexes) it was 370 ± 60 nM; in data set [4], 1100 ± 200 nM; in data set [5], 930 ± 20 nM; in [6], 957 ± 19 nM; in [7], 270 ± 100 nM. Besides, the results for the IC50 in [8], in data set [9] and in data set [10] were 500 ± 40 nM, 409 ± 215 nM and 150 ± 3 nM, respectively. For the same compound, in data set [3] (IC50 (resistant, A2780cisR)/IC50 (sensitive, A2780)), the “RF, resistance factor” value is given as 1.1. The Platinum in cytosol stood at 28 ± 4 pg Pt/µg protein in data set [11] (A2780, 24 h) and 48 ± 2 pg Pt/µg protein in data set [15]. Further, the Platinum in nucleus in data set [11] (A2780, 24 h) was 27 ± 4 pg Pt/µg protein; in data set [15] it was 55 ± 7 pg Pt/µg protein. Also, the “Total cellular platinum accumulation” value in data set [11] (A2780, 24 h exposure) amounted to 4.0 ± 0.9 ng Pt/10^6 cells; in data set [12] it was 6.0 ± 0.9 ng Pt/10^6 cells. Also, the “Platinum content on DNA” value in [13] is given as 8.0 ± 1.4 pg Pt/µg DNA; in data set [14] it was 19.8 ± 3.6 pg Pt/µg DNA. Moreover, the “Platinum on DNA, % from the total intracellular Pt amount” value in data set [13] (setting [18]) is 5.0%; in [14] (setting [18]) it was 4.8%.
The compound `Nc1ncn([C@H]2C[C@H](O)[C@@H](CO)O2)c(=O)n1` [Decitabine, 5-aza-2′-deoxycytidine, reference compound] displayed a half-maximal inhibitory concentration (IC50) in [5] (Homo sapiens, HCT-116) of 7500 ± 300 nM. For the same compound, in [16], the “Change of DNA methylation” value is given as “considerably lowered level of DNA methylation”.
As to `CCCC(CCC)C(=O)[O][Pt]([NH2])([NH2])([Cl])([Cl])[O]C(C)=O` [Pt(IV)AcVPA, reference compound], in data set [17], the log partition coefficient (logP) is 0.17.
With `CCCCCC(=O)[O][Pt]([NH2])([NH2])([Cl])([Cl])[O]C(=O)CCCCC` [Pt(IV)diHA, cis, cis, trans-[Pt(IV)(NH3)2Cl2(HA)2]], in [1], the “Average tumor weight (mean ± SD)” value was 0.088 ± 0.06 g and the “Inhibition of tumor growth” value was determined as 84%.
